These results are taken from US20010044404A1, “Cleaning process and composition” (3M Innovative Properties Company, priority 1995, published 2001).

Data set [1] in a line: Pump oil removal with n-C6H14/perfluorocompound mixture at room temperature, ultrasonic. To be noted: 40 volume % n-C6H14, 60 volume % fluorinated component, 60 seconds. As to the method:
The above-described test coupon was dipped into DuoSeal Pump Oil (available from Sargent-Welch) and was then immersed in a mixture of 40 volume % n-C6H14 and 60 volume % alkoxy-substituted perfluorocompound (a cleaning composition of the invention) for 60 seconds at room temperature with ultrasonic agitation. The percent oil removal was determined in the above-described manner.

Data set [2] is described as follows: Rinse agent in co-solvent cleaning of solder flux. To be noted: solvating agent 1 minute at about 55° C., then 30 seconds in boiling solvent. As to the method: The ability of alkoxy-substituted perfluorocompounds to function as a rinse agent in a co-solvent cleaning process was evaluated. The above-described aluminum coupon was coated with solder flux (available from Alpha Metals as Alpha 611 rosin, mildly activated flux) by immersing the coupon into a flux-filled beaker. The flux-coated coupon was then dried using a forced air convection drier. The initial amount of the flux on the coupon was determined by weighing it on an analytical balance to the nearest 0.1 mg. The coupon was immersed in a container of a mixed solvating agent comprising approximately 50% methyl decanoate and 50% dipropylene glycol di-n-butyl ether and was sonicated for 1 minute at approximately 55° C. The coupon was then immersed for 30 seconds into alkoxy-substituted perfluorocompound which had been heated to its boiling point. The coupon was weighed again, and the results were recorded in Table 5 below as percent oil removed from the coupon.

Data set [3] can be described thus: Perfluoropolyether oil removal in solvent vapor. To be noted: Brayco 815Z; vapor over boiling liquid, 60 seconds. As to the method:
The above-described aluminum coupon was dipped into Brayco 815Z perfluoropolyether oil (available from Castrol Inc., molecular weight of about 10,000) and then immersed in alkoxy-substituted perfluorocompound vapor (over the boiling liquid) for 60 seconds. The percent oil removal was determined in the above-described manner.

Data set [4] in a line: Pump oil removal with boiling mixed terpenes/perfluorocompound mixture. The following applies: boiling mixture 40 volume % mixed terpenes, 60 volume % fluorinated component. On the procedure:
The above-described test coupon was dipped into DuoSeal Pump Oil (available from Sargent-Welch), was immersed in a boiling mixture of 40 volume % of a solvating agent comprising mixed terpenes having a boiling range of 243-274° C. and 60 volume % of alkoxy-substituted perfluorocompound (a cleaning composition of the invention), was cooled for 60 seconds, and was then immersed in mixture vapor for 30 seconds. The percent oil removal was determined in the above-described manner.

Data set [5] in a line: Paraffinic oil removal: solvating agent, then rinse in boiling solvent. To be noted: methyl caproate/dipropylene glycol di-n-butyl ether 30 seconds, boiling rinse 30 seconds. As to the method: The above-described test coupon was dipped into a paraffinic oil comprising a mixture of linear and branched hydrocarbons (DuoSeal Pump Oil, available from Sargent Welch), was immersed in mixed solvating agent comprising approximately 50% methyl caproate and 50% dipropylene glycol di-n-butyl ether for 30 seconds, and was then rinsed in boiling alkoxy-substituted perfluorocompound for 30 seconds. The percent oil removal was determined in the above-described manner.

Data set [6] is described as follows: Pump oil removal in vapor of boiling n-C6H14/perfluorocompound mixture. To be noted: vapor of boiling 40 volume % n-C6H14, 60 volume % fluorinated component; 60 seconds. As to the method: The above-described test coupon was dipped into DuoSeal Pump Oil (available from Sargent-Welch) and was then immersed in the vapor of a boiling mixture of 40 volume % n-C6H14 and 60 volume % alkoxy-substituted perfluorocompound (a cleaning composition of the invention), for 60 seconds. The percent oil removal was determined in the above-described manner.

A short description of data set [7]: Mineral oil removal from aluminum coupon, sonication in solvent. The following applies: sonicated 1 minute. On the procedure:
In the following Examples and Comparative Examples, the cleaning ability of the alkoxy-substituted perfluorocompounds used in the cleaning process of the invention was further evaluated. A 1.28 cm×1.28 cm×0.225 cm wire-wrapped, aluminum coupon was coated with white heavy mineral oil (available from Aldrich Chemical) by immersing the coupon in an oil-filled beaker. The initial amount of the oil on the coupon was determined by weighing it on an analytical balance to the nearest 0.1 mg. The coupon was immersed in a container of solvent and sonicated for 1 minute at the indicated temperature (see Table 3 below for the solvents and temperatures used). The coupon was then weighed again, and the results were recorded in Table 3 as percent oil removal.

A short description of data set [8]: Mineral oil removal with boiling methyl decanoate/perfluorocompound mixture. To be noted: boiling mixture 40 volume % methyl decanoate, 60 volume % perfluorocompound. On the procedure:
The above-described test coupon was dipped in white heavy mineral oil (available from Aldrich Chemical), was immersed in a boiling single-phase mixture of 40 volume % of a solvating agent comprising essentially methyl decanoate and 60 volume % of alkoxy-substituted perfluorocompound (a cleaning composition of the invention) for 60 seconds, was cooled for 60 seconds, and was then immersed in mixture vapor for 30 seconds. The percent oil removal was determined in the above-described manner.

The nature of data set [9]: Flash point testing ASTM D3278-89. In kind it is physicochemical. As to the method: The alkoxy-substituted perfluorocompounds C4F9OCH3, C4F9OC2H5, and c-C6F11OCH3 were tested for flash point by the standard method defined by ASTM D3278-89.
Data set [10] in a line: Fluorinated oil removal from aluminum coupon. The following applies: Krytox 157FSM, room temperature. On the procedure: Using essentially the same procedure as that described in Examples 8-10, the ability of the alkoxy-substituted perfluorocompounds to remove a fluorinated oil was evaluated. As in the previous Examples, a coupon was immersed in Krytox™ 157FSM perfluoropolyether oil having carboxylic acid end groups (available from DuPont), and the percent oil remaining after immersion in the solvent (at room temperature) was determined.

Data set [11] is described as follows: Stability in the presence of base: aqueous NaOAc, fluoride ion measurement. The following applies: 10 g with 10 g 0.1M NaOAc, 110° C., 16 hours. In kind it is physicochemical. As to the method: To assess hydrolytic stability, a ten gram sample of alkoxy-substituted perfluorocompound was combined with 10 g of 0.1M NaOAc and sealed in a 2.54 cm (internal diameter) by 9.84 cm Monel™ 400 alloy (66% nickel, 31.5% copper, and 1.2% iron and several minor components) tube (available from Paar Instrument Co. of Moline, Ill. as Part Number 4713cm). The tube was heated at 110° C. in a forced air convection oven for 16 hours. After cooling to room temperature, a 1 mL sample of the tube contents was diluted with 1 mL of total ionic strength adjustment buffer (TISAB, available from Orion Research, Inc., a mixture of 1,2-cyclohexylene dinitrilotetraacetic acid, deionized water, sodium acetate, sodium chloride, and acetic acid). The concentration of fluoride ion (resulting from any reaction of the perfluorocompound with the aqueous NaOAc) was measured using an Orion Model 720A Coulombmeter with a F-specific electrode which had been previously calibrated using 0.5 and 500 ppm F^− solutions. Based on the measured fluoride ion concentration, the rate at which HF had been generated by reaction of the aqueous NaOAc with the perfluorocompound was calculated.

The nature of data set [12]: Ability to dissolve halogenated oils (miscibility). The class given is physicochemical. The following applies: room temperature. As to the method:
The ability of alkoxy-substituted perfluorocompounds to dissolve several halogenated oils was determined by adding a measured amount of oil to alkoxy-substituted perfluorocompound until the resulting mixture became turbid or phase-split. […] The results (shown in Table 12) indicate that alkoxy-substituted perfluorocompounds have very high ability to dissolve halogenated oils. Thus, the perfluorocompounds can be used as carrier solvents for halogenated oils in the deposition of coatings of such oils on substrate surfaces.

On to `FC(F)(F)C(F)(F)C(F)(F)C(F)(F)C(F)(F)C(F)(F)F` [Example C6F14, C6F14, reference compound], for which the “Percent Soil Removed” value was 88.5% in data set [1]; 92.9% in [3]; 75.7% in data set [4]; 89.2% in data set [5]; 73.8% in data set [6]. Besides, in data set [2], the “% Removed” value is given as 51.9%. In addition, the percent oil removal in data set [7] (23 ° C.) turned out to be 54.9%; in data set [7] (50 ° C.), 67.6%.

Consider C4F9OC2H5 [Example C4F9OC2H5], for which the “Percent Soil Removed” value is listed as 99.0% in [1]; 93.3% in [3]; 94.28% in data set [8]; 99.4% in data set [4]; 100.0% in [5]; 97.1% in data set [6]. Also, the “% Removed” value in [2] stood at 100.0%; in data set [10], 99.3%. In data set [9], the Flash point result is reported as “no flash point”. For the same compound, the “HF Generation Rate” value in data set [11] is 0.22 µg/g/h. Further, the Miscibility with solute result in data set [12] (Brayco 815Z Perfluoropolyether (MW about 10,000)), in [12] (Chlorotrifluoroethylene Fluid (Inland 41 Vacuum Pump Oil)) and in data set [12] (Fomblin AM-2001 Functionalized Perfluoropolyether) was “Miscible (greater than or equal to 50 percent by volume solubility at room temperature)” each time. The figures for the percent oil removal in [7] (23 ° C.), in data set [7] (50 ° C.) and in data set [7] (60 ° C.) were 56.0%, 99.2% and 100.0%, respectively.
